A short description of the data set: Human HepG2 cell viability assay in 384 well format. It is filed as toxicity, cell-based. On the set-up: dose 125 nL, time 70.5 hour; concentration not given beside the values. The conditions noted are these: HepG2 cells, read-out: Inhibition.
As for `COCCNc1nc2c(c(NCc3cnc(C)c(C)c3)n1)CCNCC2`, the cytotoxicity at 70.5 h was -3.2%.

`Cc1cc(N2Cc3cnn(CCO)c3C2)nc(-c2ccccc2O)n1`: the cytotoxicity at 70.5 h is -4.43%.

As to `c1cn(CC2CCOCC2)c(-c2cc(CN3CCCC3)cs2)n1`, the cytotoxicity at 70.5 h is -3.55%.

With `COCCC1(C(=O)O)CCN(c2cc(C)c3ccccc3n2)CC1`, the cytotoxicity at 70.5 h was 18.8%.

Regarding `CN(C)C(C(=O)NCC1(Cn2cccn2)CC1)c1ccc(F)cc1` (configuration not stated), the cytotoxicity at 70.5 h is 3.72%.

Regarding `COc1ccc([C@@H]2CN(Cc3ccncc3)C[C@H]2N(C)C)cc1`, the cytotoxicity at 70.5 h is -9.42%.

As to `O=C(O)[C@@H]1CN(C(=O)NCC2CCCCC2)C[C@H]1c1ccccn1`, the cytotoxicity at 70.5 h was -2.76%.

As to `CCCOCC1CCN(C(=O)c2cnc(C)nc2O)C1` (configuration not stated), the cytotoxicity at 70.5 h is -2.13%.

As for `CSc1nccc(N2CCC(NCCN3CCOCC3)CC2)n1`, the cytotoxicity at 70.5 h was -6.94%.

Take `COc1ccccc1C(C(=O)O)N1CCCN(C2CCCC2)CC1` (configuration not stated): the cytotoxicity at 70.5 h was 16.1%.

On to `O=C(NC1CC1)[C@H]1[C@@H]2CN(Cc3ccc(-c4ccn[nH]4)s3)C[C@@H]21`, for which the cytotoxicity at 70.5 h stood at 0.292%.

In the case of `O=C1CC[C@@H](C(=O)N2CCc3[nH]nc(COc4cccc(Cl)c4)c3C2)N1`, the cytotoxicity at 70.5 h is -8.37%.

Consider `Oc1cccc(CN2CCN(C3CCc4ccccc4C3)CC2)c1` (configuration not stated), for which the cytotoxicity at 70.5 h stood at 19.8%.

Take `CCO[C@H]1C[C@@H](O)C12CCN(C(=O)CN1CCCCCC1=O)CC2`: the cytotoxicity at 70.5 h stood at 6.65%.

Consider `Cc1nc(N(C)C)nc(NCCc2c[nH]cn2)c1C`, for which the cytotoxicity at 70.5 h was determined as 23.7%.

`CN(C)C1CCN(c2cc(-c3ccccc3)nc3ccnn23)C1` (configuration not stated): the cytotoxicity at 70.5 h worked out at 5.02%.

For the compound `Cc1nc2c(c(=O)n1C)CN(C(=O)C1CCCN(CC(N)=O)C1)C2` (configuration not stated), the cytotoxicity at 70.5 h amounted to 8.71%.

For `CCc1ccc(CN2CCN(c3ccc(C#N)cc3)C(=O)C2)nc1`, the cytotoxicity at 70.5 h is -10.5%.

On to `Cc1nc(CN(C)C(=O)C2CC(=O)N(c3cccc(O)c3)C2)cs1` (configuration not stated), for which the cytotoxicity at 70.5 h was -2.8%.

With `CC(C)[C@@H]1CN(Cc2c[nH]nc2-c2ccc(F)cc2)C[C@H]1NS(C)(=O)=O`, the cytotoxicity at 70.5 h was -2.13%.

For `COC(=O)CNC(=O)CC1COc2ccc(C(=O)N(C)C)cc2N1C` (configuration not stated), the cytotoxicity at 70.5 h is -2.55%.

Turning to `O=C(CN1CCCCCC1)NCCSc1cnn[nH]1`, the cytotoxicity at 70.5 h came to 0.00682%.

In the case of `CC(C)(C)CCN1CCC(c2nnc(Cn3cccn3)n2C2CC2)CC1`, the cytotoxicity at 70.5 h was -9.38%.

As for `Cc1c(C(=O)N[C@H]2CN(CCS(C)(=O)=O)C[C@@H]2C2CC2)cnn1C`, the cytotoxicity at 70.5 h was -5.86%.

For the compound `O=C1NCC2(CCCN(C(=O)c3c[nH]nc3-c3cccs3)C2)O1` (configuration not stated), the cytotoxicity at 70.5 h was -8.3%.

Consider `CCOCC(=O)N1CCC(Cc2nnc(SC)n2C)CC1`, for which the cytotoxicity at 70.5 h is -3.88%.

For `CCc1nc(N2CCN(CCOC)CC2)c2cnn(C)c2n1`, the cytotoxicity at 70.5 h is -11.9%.

With `CCC1(CO)CCCN(Cc2nccn2Cc2ccccc2)C1` (configuration not stated), the cytotoxicity at 70.5 h was -4.15%.

As to `CCn1c(C2CCN(Cc3cc(C)n(NC(C)=O)c3C)CC2)n[nH]c1=O`, the cytotoxicity at 70.5 h is -4.98%.

On to `O=C(NC1CC(=O)N(C2Cc3ccccc3C2)C1)c1csnn1` (configuration not stated), for which the cytotoxicity at 70.5 h is -1.65%.

Consider `COCCN(C)C[C@@H]1CN(C(=O)c2ccc(C)c(Cl)c2)C[C@@H]1CO`, for which the cytotoxicity at 70.5 h came to 1.13%.

For `Cc1ccccc1C(=O)N1CC[C@@H](N2CCC(O)CC2)[C@H](O)C1`, the cytotoxicity at 70.5 h is -1.6%.

For `CC(C)c1cc(N2CCCC3(CCN(C)C3)C2)ncn1` (configuration not stated), the cytotoxicity at 70.5 h was -5.86%.

For the compound `CCc1cn[nH]c1C1CCCN(C(=O)c2cc(C#N)c(=O)[nH]c2C)C1` (configuration not stated), the cytotoxicity at 70.5 h is -22.8%.

Consider `O=C(Nc1ccc(S(=O)(=O)Nc2c(F)cccc2F)cc1)N1CCCC1`, for which the cytotoxicity at 70.5 h is -6.84%.

Consider `Cc1cccc2cc(CO)c(N3Cc4cnc(C(C)(C)C)nc4C3)nc12`, for which the cytotoxicity at 70.5 h came to 7.83%.

With `C[C@@H]1CN(Cc2cc(C(F)(F)F)ccc2F)CC[C@@]1(O)C1CC1`, the cytotoxicity at 70.5 h was -2.04%.

Regarding `CC(=O)N1CCC(N[C@@H]2CC[C@@H]2NS(=O)(=O)c2cccnc2)CC1`, the cytotoxicity at 70.5 h turned out to be 2.57%.

Regarding `CCn1cc(CN2CCCC3(CCC(=O)N(CCC(C)C)C3)C2)cn1` (configuration not stated), the cytotoxicity at 70.5 h was -1.61%.

With `CC(C)[C@H]1COC(=O)N1CC(=O)N1CCCN(C(=O)c2ccoc2)CC1`, the cytotoxicity at 70.5 h was -8.34%.

For the compound `CC(C)Cc1cc(CNC(=O)C2CCCN(Cc3ccco3)C2)no1` (configuration not stated), the cytotoxicity at 70.5 h is -4.13%.

In the case of `COc1ccccc1C1CCN(C(=O)CN2C(=O)OC(C)(C)C2=O)CC1`, the cytotoxicity at 70.5 h is -6.76%.

In the case of `Cc1cccc(-n2ncc3c2CCCC3NCC(C)(C)CO)c1C` (configuration not stated), the cytotoxicity at 70.5 h was -10.7%.

Regarding `O=C(c1ccccc1-c1nc[nH]n1)N1CCOC(C(F)(F)F)C1` (configuration not stated), the cytotoxicity at 70.5 h was -2.49%.

Take `CN(C)c1nc2c(c(NCc3nnc4n3CCCCC4)n1)CCNC2`: the cytotoxicity at 70.5 h is -6.97%.

As to `CC(C)n1ccc(CN2CCN(c3cc(NC4CC4)nc(N)n3)CC2)c1`, the cytotoxicity at 70.5 h was -9%.

Turning to `CCCc1cc(=O)[nH]c(-c2ccccc2CN(C)CCC(C)C)n1`, the cytotoxicity at 70.5 h came out at 18.2%.

In the case of `CC(=O)Nc1ccc(C(=O)N(C)C(C)Cc2cc(C)ccn2)cn1` (configuration not stated), the cytotoxicity at 70.5 h was determined as 1.81%.

In the case of `CN1CC[C@H]2CN(C(=O)COCc3nc4cc(F)ccc4[nH]3)C[C@H]21`, the cytotoxicity at 70.5 h was 20.4%.

As for `Cc1nc(O)cc(CCNC(=O)c2ccccc2N2CCCC2)n1`, the cytotoxicity at 70.5 h worked out at 27%.

For the compound `CCc1cc(N[C@H]2CCC[C@H]2CO)n2nccc2n1`, the cytotoxicity at 70.5 h was determined as 6%.

On to `CCCn1cc(C(=O)NCCc2ccc3c(c2)OCO3)c(C)n1`, for which the cytotoxicity at 70.5 h is -4.51%.

Regarding `CCc1c(C)sc(NC(=O)CN2CCOCC2)c1C(=O)OC`, the cytotoxicity at 70.5 h is -6.67%.

In the case of `CSCc1ccc(N2CCC(C(O)Cc3ccccc3)CC2)nc1` (configuration not stated), the cytotoxicity at 70.5 h was determined as 26.6%.

For `COCCN(C)CCN1CC2(CCN(C3CCNCC3)CC2)OC1=O`, the cytotoxicity at 70.5 h was -10.2%.

For the compound `CN(C(=O)c1cccc(NCc2cccs2)c1)C(C1CC1)C1CC1`, the cytotoxicity at 70.5 h was -11.2%.

Consider `CC(=O)N1C[C@H](NS(=O)(=O)c2cccc(Cl)c2)[C@@H](C(C)C)C1`, for which the cytotoxicity at 70.5 h was -9.51%.

`CCC[C@H]1CN(c2nccc(OC)n2)C[C@@H]1NS(=O)(=O)N(C)C`: the cytotoxicity at 70.5 h turned out to be 0.969%.

With `Cc1[nH]nc(CCC(=O)N2CCc3ncnc(NCCO)c3CC2)c1C`, the cytotoxicity at 70.5 h was -12.5%.

In the case of `COc1coc(CN2CCCC(CCc3ccccc3F)C2)cc1=O` (configuration not stated), the cytotoxicity at 70.5 h was determined as 16.9%.

With `CCCNS(=O)(=O)c1ccc2[nH]c(=O)cc(C)c2c1`, the cytotoxicity at 70.5 h is -12.9%.

With `Cc1cccnc1CC(C)NC1Cc2ccccc2C1` (configuration not stated), the cytotoxicity at 70.5 h was found to be 5.92%.

For `O=C(NC1CC1)c1nc(Cn2c(C(F)F)nc3ccccc32)no1`, the cytotoxicity at 70.5 h is -7.88%.

With `Cc1noc(C)c1CCNc1nccc(CCC(F)(F)F)n1`, the cytotoxicity at 70.5 h is -8.75%.

Take `CNCc1cn(C2CCN(C(=O)NCc3ccco3)CC2)nn1`: the cytotoxicity at 70.5 h was -8.5%.

As for `CCc1nc2c(NCC3COc4cc(OC)ccc4C3)ncnc2o1` (configuration not stated), the cytotoxicity at 70.5 h was -5.75%.

With `CC(C)NC(=O)c1nc(Cn2c(C(F)F)nc3ccccc32)no1`, the cytotoxicity at 70.5 h is -15.2%.

In the case of `CN(C)S(=O)(=O)N1CC[C@]2(O)CCN(c3nccs3)C[C@@H]2C1`, the cytotoxicity at 70.5 h came to 21.2%.

As for `CCN1CCN(C(=O)COc2ccc(CN(C)S(C)(=O)=O)cc2)CC1`, the cytotoxicity at 70.5 h was -3.87%.

As for `CCc1ccc(CNC(=O)CCc2nnc(-c3ccc(C)s3)o2)nc1`, the cytotoxicity at 70.5 h was -3.31%.

For `CCCN(Cc1cccc(OCCO)c1)Cc1ccccc1OC`, the cytotoxicity at 70.5 h came to 5.31%.

As to `CN(C)CC(C)(C)Cn1cnc(-c2ccccc2)c1-c1ccncc1`, the cytotoxicity at 70.5 h was -9.09%.

Turning to `CCCN1CCC(NC(=O)c2csc(C)c2C)CC1`, the cytotoxicity at 70.5 h is -7.88%.

For `CC(C1CCN(Cc2cnn(C)c2C2CC2)CC1)N1CCCC1` (configuration not stated), the cytotoxicity at 70.5 h was -7.31%.

`Cc1ccccc1N1CCN(C(=O)CC(C)C)CC1`: the cytotoxicity at 70.5 h is 0.0324%.

For `CCCN1CCC(NC(=O)c2csc(C)c2-c2ccccc2)CC1`, the cytotoxicity at 70.5 h was -9.07%.

Turning to `Cc1ccc2c(c1)c(CNC(=O)C1CC(=O)N(CCN(C)C)C1)nn2C` (configuration not stated), the cytotoxicity at 70.5 h is -0.487%.

Regarding `N#CC1CCCN(c2ncnc3c2CCN(Cc2ccccc2)CC3)C1` (configuration not stated), the cytotoxicity at 70.5 h was found to be 2.53%.

In the case of `CCN(CCO)C[C@@H]1CN(c2nc(C)cc(C)n2)C[C@@H]1CO`, the cytotoxicity at 70.5 h was -2.32%.

`Cc1cc(=O)[nH]c(=O)n1-c1cccc(Cl)c1Cl`: the cytotoxicity at 70.5 h was -12.3%.

For `O=C(CC(F)(F)F)N1CCc2[nH]nc(-c3ccc4c(c3)OCO4)c2C1`, the cytotoxicity at 70.5 h amounted to 7.4%.

With `CN1CCC(Oc2ccc(-n3ccnc3-c3ccncc3)cc2)CC1`, the cytotoxicity at 70.5 h was -13.2%.

With `O=S(=O)(c1c(N2CCCCC2)ccc2nonc12)N1CCCCC1`, the cytotoxicity at 70.5 h was -8.4%.

For `Cc1ccc(C(=O)NCCC(C)C)cc1NS(C)(=O)=O`, the cytotoxicity at 70.5 h is -10%.

`CN(C)Cc1nnc(C2CCCN(c3ncccc3F)C2)n1C` (configuration not stated): the cytotoxicity at 70.5 h came to 24.4%.

For the compound `Cc1cc(C)c2nc(CN[C@H]3CCCNC3)cc(O)c2c1`, the cytotoxicity at 70.5 h was -2.89%.

Turning to `CC(=O)Nc1ncc(S(=O)(=O)N2CCC(C)CC2)s1`, the cytotoxicity at 70.5 h is -8.58%.

Regarding `COc1cc(-c2cnnc(NCCCOC(C)C)n2)cc(OC)c1OC`, the cytotoxicity at 70.5 h is 6.95%.

As for `Cc1ccnc(NC(=O)C(C)Cn2cncn2)c1` (configuration not stated), the cytotoxicity at 70.5 h was determined as 13.8%.

For the compound `COCCNc1nc2c(c(NCC3CCOC3)n1)CCNCC2` (configuration not stated), the cytotoxicity at 70.5 h was -0.779%.

For `CCC[C@H]1CN(Cc2cc(C#N)n(C)c2C)C[C@@H]1NS(=O)(=O)CC`, the cytotoxicity at 70.5 h was -6.14%.

Consider `CCc1cc(C(=O)N2CC[C@@H](c3ccc4c(c3)OCO4)[C@H](O)C2)ccn1`, for which the cytotoxicity at 70.5 h was 16.7%.

With `COc1ccc(C(=O)n2nc(C)c(C)c2C)cc1`, the cytotoxicity at 70.5 h was -2.07%.

Regarding `Cc1cccc2c1nc(COCC(=O)O)n2-c1ccsc1`, the cytotoxicity at 70.5 h was -4.32%.

As to `O=C(C1CCOC1)N1CCN(Cc2ccc3c(c2)CCO3)CC1` (configuration not stated), the cytotoxicity at 70.5 h is -9.08%.

Turning to `COC(=O)c1ccc(CN(C(C)C)C(C)C)o1`, the cytotoxicity at 70.5 h is -2.95%.

With `Cc1ccc(OCCSC2=NCCN2)cc1`, the cytotoxicity at 70.5 h is -4.93%.

The values above are taken from ChEMBL document CHEMBL3507680, “University of Dundee, Gates Library screen for HepG2 cell viability”.
